From patent US20260167972A1, “AMINO ACID DERIVATIVES AS NOVEL DELIVERY AGENTS FOR FUNCTIONAL DELIVERY OF OLIGONUCLEOTIDES” (University of Rochester, priority 2022, published 2026)
Several values for one entry are separate records, joined by “and”; a condition that tells them apart may be missing. Identical values can stand only once.

Test system: A549 cells
Assay: MTT cytotoxicity assay
Format: cell-based, human
Settings: normalized to naïve control, ± SEM
Description: A549 cells were dosed with 100 µM of these derivatives for 4 h (FIG. 7A), 24 h (FIG. 7B), and 48 h (FIG. 7C). FIG. 7 reports cell viability as percent viability of A549 cells normalized to naïve control. (A) Cell viability after 4 h dosing (n=3, *p≤0.05, **p≤0.01). (B) Cell viability after 24 h dosing (n=3, *p≤0.05, **p≤0.01). (C) Cell viability after 48 h dosing (n=3, *p≤0.05, **p≤0.01, ****p≤0.0001). […] An MTT assay was performed after dosing for 4 h, 24 h, 48 h, or 4 h with media change and additional 48 h incubation. Average values are reported with calculated standard error of the mean (SEM).
The cells will also recover after exposure to N-X-Phe-DAP derivatives under conditions that resemble knockdown experiments. Cells were dosed with N-X-Phe-DAP derivatives or Lipofectamine for 4 hours, after which the media was aspirated and replaced with DMEM cell culture media and incubated for an additional 48 hours (FIG. 8). This protocol mimics the gene knockdown experiments and acts as a better indication of how cytotoxicity may impact gene silencing measurements.
Sample Preparation for Cell-Based Experiments: For delivery analysis and functional knockdown, N-X-Phe-DAP derivatives (10 μL, 1 mM) or Lipofectamine 3000 (6 μL) was mixed with TTF-1 siRNA (Santa Cruz Biotechnology sc-36756, 6 μL, 10 μM) in Ultrapure™ DNase/RNase-Free Distilled Water (Invitrogen 10977015) to give a final volume of 100 μL. These mixtures were incubated for 30 minutes at room temperature, followed by dilution into 1×DMEM (Gibco 11965092, 1.9 mL). For cytotoxicity assays, N-X-Phe-DAP derivatives (10 μL, 1 mM) were diluted into 1×DMEM (Gibco 11965092, 1.9 mL).
MTT Cytotoxicity Assay: All cytotoxicity assays were performed in triplicate. A549 cells were seeded at a density of 2400 cells/well in a 96-well plate (200 μL) and grown to 70-90% confluency. Cells were washed with 1×PBS (200 μL), N-X-Phe-DAP derivatives were added (200 μL/well), and incubated 4 h, 24 h, or 48 h at 37° C., 5% CO2 or for 4 h at 37° C., 5% CO2 followed by washing with 1×PBS and addition of complete media containing 1×DMEM (Gibco 11965092), 10% fetal bovine serum (FBS, Invitrogen 26140087), and 1× antibiotic-antimycotic (Gibco 15240-062). A solution of thiazoyl blue tetrazolium bromide (MTT, 1 mg/mL) was prepared in 1×DMEM devoid of phenol red (Invitrogen 31053028). After the appropriate incubation time, cells were washed with 1×PBS, dosed with MTT (200 μL), and incubated an additional 1 h at 37° C., 5% C02 in the dark. The 96-well plate was centrifuged for 5 min at 4000 rpm, the media was aspirated, and DMSO (100 μL) was added to the wells. Absorbance measurements (550 nm) were taken on a Tecan Infinite M1000 Pro plate reader. Cell viability was then calculated and normalized to the naïve control.

| SMILES | Cell Viability (%) 4 h Dosing [%] | Cell Viability (%) 24 h Dosing [%] | Cell Viability (%) 48 h Dosing [%] | Cell Viability (%) Media Change After 4 h Followed by 48 h Incubation | Cell Viability (%) 4 h Dosing (listed as Fmoc-Pyr-DAP) | Cell Viability (%) 24 h Dosing (listed as Fmoc-Pyr-DAP) [%] |
| --- | --- | --- | --- | --- | --- | --- |
| NCCCNC(=O)[C@H](Cc1ccccc1)NC(=O)Cc1cccc2ccccc12 [1-Nap-Phe-DAP] | 65.3 ± 3.7 | 69.5 ± 5.9 | 45.1 ± 3.1 | 56.5 ± 1.1% | – | – |
| NCCCNC(=O)[C@H](Cc1ccccc1)NC(=O)Cc1ccc2ccccc2c1 [2-Nap-Phe-DAP] | 50.4 ± 1.5 | 58.3 ± 6.0 | 44.3 ± 8.7 | 60.7 ± 1.6% | – | – |
| NCCCNC(=O)[C@H](Cc1ccccc1)NC(=O)OCc1ccccc1 [Cbz-Phe-DAP] | 60.8 ± 3.8 | 69.8 ± 8.2 | 53.7 ± 3.0 | 50.2 ± 3.4% | – | – |
| NCCCNC(=O)[C@H](Cc1ccccc1)NC(=O)C1CCCCC1 [Cyc-Phe-DAP] | 58.3 ± 9.2 | 59.6 ± 4.9 | 60.4 ± 2.6 | 67% and 66.5 ± 5.1% | – | – |
| NCCCNC(=O)[C@H](Cc1ccccc1)NC(=O)CC1c2ccccc2-c2ccccc21 [Fm-Phe-DAP] | 60.7 ± 3.6 | 51.7 ± 4.4 | 26.7 ± 4.0 | 72.6 ± 7.4% | – | – |
| NCCCNC(=O)[C@H](Cc1cccc(F)c1)NC(=O)OCC1c2ccccc2-c2ccccc21 [Fmoc-3F-Phe-DAP] | 59.9 ± 3.8 | 75.3 ± 5.0 | 42.0 ± 2.4 | 71.1 ± 6.3% | – | – |
| NCCCNC(=O)[C@H](Cc1c(F)c(F)c(F)c(F)c1F)NC(=O)OCC1c2ccccc2-c2ccccc21 [Fmoc-F5-Phe-DAP] | 48.1 ± 5.9 | – | – | 54.2 ± 6.2% | – | – |
| NCCCNC(=O)[C@H](Cc1ccccc1)NC(=O)OCC1c2ccccc2-c2ccccc21 [Fmoc-Phe-DAP] | 76.3 ± 2.8 | 96.5 ± 3.2 | 63.7 ± 5.1 | 76.1 ± 4.9% | – | – |
| CCCCCCC(=O)N[C@@H](Cc1ccccc1)C(=O)NCCCN [Hex-Phe-DAP] | 38.9 ± 3.7 | 66.0 ± 5.5 | 52.1 ± 4.5 | 53% and 53.1 ± 4.5% | – | – |
| NCCCNC(=O)[C@H](Cc1ccccc1)NC(=O)CCCc1ccc2ccc3cccc4ccc1c2c34 [Pyr-Phe-DAP] | 17.2 ± 1.1 | 2.6 ± 0.8 | – | 22.3 ± 2.7% | less than 20% | < 3 |
